The results in this text go back to US12479827B2, “Heteroaromatic carboxamide derivatives as plasma kallikrein inhibitors” (Boehringer Ingelheim International GmbH, priority 2020, dated 2025).

What all share (format): biochemical
The target of one assay is T1, Human PKK (Homo sapiens, UniProt P03952).
T1 construct: purchased Enzyme Research Laboratories
The assay is described as follows: Inhibition of PKK using an endpoint assay (human PKK). Particulars: fluorogenic substrate H-Pro-Phe-Arg-AMC, 1 h room temperature, method names human or rat PKK, table does not say which. Summed up:
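Human PKK inhibition measured in 100 mM Tris, 150 mM NaCl, pH 7.8, 0.1% BSA, 0.05% Tween20, 1% DMSO. Endpoint format: reaction stopped with PPACK II at 1 μM final, fluorescence read at 355 nm excitation/460 nm emission.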

The target of assay [1] is T2, PKK in kaolin activated human platelet poor plasma (Homo sapiens, UniProt P03952).
T2 construct: Platelet poor plasma (PPP) obtained from human wholeblood; from tissue
As to the kind of experiment: Inhibition of PKK in kaolin activated human PPP.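 Note: readout is the rate of fluorogenic substrate cleavage in rfu per min.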 Particulars: 25-750 μg/mL kaolin, global fit, text b200 calls the values IC90. The procedure: Platelet poor plasma (PPP) obtained from human wholeblood, anticoagulated with Na-Citrate, is incubated with various concentrations of the test compound together with either 25, 75, 250, or 750 μg/mL kaolin in assay buffer for 20 min at 37° C. such that for each kaolin dose used a concentration response is obtained for the test compound.

Another assay has as its target T3, human TK1 (Homo sapiens, UniProt P06870).
T3 construct: purchased R&D Systems
As to the kind of experiment: Inhibition of TK1 (Ki). Particulars: activated human TK1, substrate H-Pro-Phe-Arg-AMC, 24° C. The procedure:
The ability of compounds of formula (I) to inhibit plasma kallikrein (PKK), Factor XIIa (FXIIa), Factor XIa (FXIa), Factor Xa (FXa), Factor IIa (alpha-thrombin; FIIa), plasmin, trypsin, tissue kallikrein 1 (TK1), Factor VIIa (FVIIa), or FVIIa complexed with Tissue Factor, phospholipids and CaCl2 (FVIIa/TF/PL/CaCl2) is determined using the following biochemical assays in assay buffer (100 mM Tris, 150 mM NaCL, adjusted to a pH of 7.8 with HCl, and containing 0.1% (w/v) BSA and 0.05% (v/v) Tween20) in the presence of 1% (v/v) DMSO:
Prior to the assay, human TK1 (R&D Systems) is activated by incubation with human trypsin (Calbiochem) in a 1:10,000 ratio for 15 min at 37° C. For assaying TK1 inhibitory activity, activated TK1 (31.25 nM or 1 U/mL) is incubated at 24° C. with 0.1 mM fluorogenic substrate H-Pro-Phe-Arg-AMC (11295 from Bachem) and various concentrations of the test compound in assay buffer. Measurements are performed in a kinetic interval every 2nd minute for 16 min using a Spectramax M5 (Molecular Devices) with the following settings of the wavelength excitation of 350 nm and wavelength emission of 450 nm.
The pIC50 values are then fitted using a four-parametric fitting procedure using GraphPad Prism (version 6; GraphPad Software, Inc.). Respective Ki values are obtained by correction of the IC50 values for the respective KM value of the used substrate (see Table A for the obtained KM values of the used substrates) using the following formula:
[formula] Where the IC50 is in molar and the KM value in mM.

T2 sequence (P03952 391-638 limits assumed): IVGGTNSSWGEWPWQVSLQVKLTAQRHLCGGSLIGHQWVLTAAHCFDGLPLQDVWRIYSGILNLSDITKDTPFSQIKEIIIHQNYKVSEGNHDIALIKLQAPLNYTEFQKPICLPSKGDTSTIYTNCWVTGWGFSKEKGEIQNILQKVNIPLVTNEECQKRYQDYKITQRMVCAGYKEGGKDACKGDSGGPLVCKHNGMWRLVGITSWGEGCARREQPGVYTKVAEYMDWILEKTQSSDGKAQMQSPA
T2 sequence (P03952 20-390 limits assumed): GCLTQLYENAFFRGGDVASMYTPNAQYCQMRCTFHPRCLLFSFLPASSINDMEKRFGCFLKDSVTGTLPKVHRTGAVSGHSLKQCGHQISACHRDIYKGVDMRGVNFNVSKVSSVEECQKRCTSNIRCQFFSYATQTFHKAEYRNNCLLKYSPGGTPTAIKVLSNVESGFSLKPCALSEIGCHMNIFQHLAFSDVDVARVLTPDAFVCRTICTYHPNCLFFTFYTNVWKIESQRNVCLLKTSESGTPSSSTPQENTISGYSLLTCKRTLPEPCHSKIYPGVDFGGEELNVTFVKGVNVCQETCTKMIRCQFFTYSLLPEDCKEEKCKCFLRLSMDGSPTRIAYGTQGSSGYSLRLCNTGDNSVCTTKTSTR
T3 sequence (P06870 25-262): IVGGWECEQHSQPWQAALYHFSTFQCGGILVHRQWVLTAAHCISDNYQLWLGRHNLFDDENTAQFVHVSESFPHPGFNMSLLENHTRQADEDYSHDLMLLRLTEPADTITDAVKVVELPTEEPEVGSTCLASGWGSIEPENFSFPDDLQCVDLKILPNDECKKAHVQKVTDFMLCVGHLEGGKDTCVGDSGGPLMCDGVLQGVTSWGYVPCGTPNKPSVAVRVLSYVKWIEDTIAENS
T1 sequence (P03952 20-390 limits assumed): as the sequence (P03952 20-390 limits assumed) above
T1 sequence (P03952 391-638 limits assumed): as the sequence (P03952 391-638 limits assumed) above

With `COCc1nn(Cc2ccc(N3CC4CC4C3)nc2C)cc1C(=O)N[C@@H]1CCc2c1ncn2C` (stereo partly drawn) [Example 123, 1-[(6-{3-Azabicyclo[3.1.0]hexan-3-yl}-2-methylpyridin-3-yl)methyl]-3-(methoxymethyl)-N-[(4R)-1-methyl-1H,4H,5H,6H-cyclopenta-[d]imidazol-4-yl]-1H-pyrazole-4-carboxamide], the concentration for half-maximal inhibition (IC50) against Human PKK is 0.9 nM; in assay [1] it was 1320 nM. Moreover, the Ki at human TK1 was > 10000 nM.
In the same order, the values of `Cc1nc(N2CC3CC3C2)c(C#N)cc1Cn1cnc(C(=O)N[C@@H]2CCc3c2ncn3C)c1` (stereo partly drawn) [Example 124, 1-[(6-{3-Azabicyclo[3.1.0]hexan-3-yl}-5-cyano-2-methylpyridin-3-yl)methyl]-N-[(4R)-1-methyl-1H,4H,5H,6H-cyclopenta[d]imidazol-4-yl]-1H-imidazole-4-carboxamide] are 2.4 nM, 823 nM and > 10000 nM.
As to `Cc1nc(N2CC3CC3C2)ccc1Cn1cc(C(=O)N[C@@H]2CCc3c2ncn3C)c(C(C)(C)O)n1` (stereo partly drawn) [Example 125, 1-[(6-{3-Azabicyclo[3.1.0]hexan-3-yl}-2-methylpyridin-3-yl)methyl]-3-(2-hydroxypropan-2-yl)-N-[(4R)-1-methyl-1H,4H,5H,6H-cyclopenta-[d]imidazol-4-yl]-1H-pyrazole-4-carboxamide], the IC50 was 1.1 nM at Human PKK and 2740 nM in assay [1]. Moreover, at human TK1, the Ki was > 10000 nM.
Taken in the same sequence, the figures for `COCc1nn(Cc2ccc(N3CC4C(C3)C4(F)F)nc2C)cc1C(=O)N[C@@H]1CCc2c1ncn2C` (stereo partly drawn) [Example 126, 1-[(6-{6,6-Difluoro-3-azabicyclo[3.1.0]hexan-3-yl}-2-methylpyridin-3-yl)methyl]-3-(methoxymethyl)-N-[(4R)-1-methyl-1H,4H,5H,6H-cyclopenta[d]imidazol-4-yl]-1H-pyrazole-4-carboxamide] were 0.6 nM, 681 nM and > 10000 nM.
Consider `Cn1cnc2c1CC[C@H]2NC(=O)c1cnn(Cc2ccc(N3CC4CC4C3)nc2Cl)c1` (stereo partly drawn) [Example 127, 1-[(6-{3-Azabicyclo[3.1.0]hexan-3-yl}-2-chloropyridin-3-yl)methyl]-N-[(4R)-1-methyl-1H,4H,5H,6H-cyclopenta[d]imidazol-4-yl]-1H-pyrazole-4-carboxamide], for which the IC50 on Human PKK was 1.2 nM; in assay [1] it was 1680 nM. For the same compound, the Ki at human TK1 was > 10000 nM.
Consider `Cc1nc(N2CC3CC3C2)c(C#N)cc1Cn1cc(C(=O)N[C@@H]2CCc3c2ncn3C)cn1` (stereo partly drawn) [Example 128, 1-[(6-{3-Azabicyclo[3.1.0]hexan-3-yl}-5-cyano-2-methylpyridin-3-yl)methyl]-N-[(4R)-1-methyl-1H,4H,5H,6H-cyclopenta[d]imidazol-4-yl]-1H-pyrazole-4-carboxamide], for which the IC50 against Human PKK is 5.1 nM; in assay [1], 1390 nM. Besides, the Ki on human TK1 is > 10000 nM.
Taken in the same sequence, the figures for `Cn1cnc2c1CC[C@H]2NC(=O)c1cnn(Cc2ccc(N3CC4CC4C3)nc2)c1` (stereo partly drawn) [Example 131, 1-[(6-{3-Azabicyclo[3.1.0]hexan-3-yl}pyridin-3-yl)methyl]-N-[(4R)-1-methyl-1H,4H,5H,6H-cyclopenta[d]imidazol-4-yl]-1H-pyrazole-4-carboxamide] were 4.3 nM, 962 nM and > 10000 nM.
In the same order, the values of `Cc1nc(N2CC3CC3C2)ccc1Cn1cc(C(=O)N[C@@H]2CCc3c2ncn3C)cn1` (stereo partly drawn) [Example 133, 1-[(6-{3-Azabicyclo[3.1.0]hexan-3-yl}-2-methylpyridin-3-yl)methyl]-N-[(4R)-1-methyl-1H,4H,5H,6H-cyclopenta[d]imidazol-4-yl]-1H-pyrazole-4-carboxamide] are 1.6 nM, 560 nM and > 10000 nM.
In the same order, the values of `Cn1cnc2c1CC[C@H]2NC(=O)c1cnn(Cc2ccc(N3CC4CC4C3)nc2C(F)(F)F)c1` (stereo partly drawn) [Example 134, 1-[(6-{3-Azabicyclo[3.1.0]hexan-3-yl}-2-(trifluoromethyl)pyridin-3-yl)methyl]-N-[(4R)-1-methyl-1H,4H,5H,6H-cyclopenta[d]imidazol-4-yl]-1H-pyrazole-4-carboxamide] are 1.7 nM, 1030 nM and > 10000 nM.
In the case of `Cn1cnc2c1CC[C@H]2NC(=O)c1cn(Cc2ccc(N3CC4CC4C3)nc2)nn1` (stereo partly drawn) [Example 135, 1-[(6-{3-Azabicyclo[3.1.0]hexan-3-yl}pyridin-3-yl)methyl]-N-[(4R)-1-methyl-1H,4H,5H,6H-cyclopenta[d]imidazol-4-yl]-1H-1,2,3-triazole-4-carboxamide], the IC50 on Human PKK was 4.2 nM; in assay [1], 909 nM. Further, the Ki at human TK1 was > 10000 nM.
In the same order, the values of `Cc1nc(N2CC3C(C2)C3(F)F)ncc1Cn1cnc(C(=O)N[C@@H]2CCc3c2ncn3C)c1` (stereo partly drawn) [Example 136, 1-[(2-{6,6-Difluoro-3-azabicyclo[3.1.0]hexan-3-yl}-4-methylpyrimidin-5-yl)methyl]-N-[(4R)-1-methyl-1H,4H,5H,6H-cyclopenta[d]imidazol-4-yl]-1H-imidazole-4-carboxamide] are 2 nM, 310 nM and > 10000 nM.
Taken in the same sequence, the figures for `Cc1nc(N2CC3CC3C2)ncc1Cn1cc(C(=O)N[C@@H]2CCc3c2ncn3C)nn1` (stereo partly drawn) [Example 137, 1-[(2-{3-Azabicyclo[3.1.0]hexan-3-yl}-4-methylpyrimidin-5-yl)methyl]-N-[(4R)-1-methyl-1H,4H,5H,6H-cyclopenta[d]imidazol-4-yl]-1H-1,2,3-triazole-4-carboxamide] were 4.4 nM, 756 nM and > 10000 nM.
On to `Cc1nc(N2CC3(CC3)C2)ccc1Cn1cc(C(=O)N[C@@H]2CCc3c2ncn3C)cn1` [Example 169, 1-[(6-{5-Azaspiro[2.3]hexan-5-yl}-2-methylpyridin-3-yl)methyl]-N-[(4R)-1-methyl-1H,4H,5H,6H-cyclopenta[d]imidazol-4-yl]-1H-pyrazole-4-carboxamide], for which the half-inhibitory concentration (IC50) was determined as 0.6 nM against Human PKK and 485 nM in assay [1]. Also, on human TK1, the inhibitory constant (Ki) was > 10000 nM.
`Cc1nc(N2CC3(CC3)C2)ccc1Cn1cnc(C(=O)N[C@@H]2CCc3c2ncn3C)c1` [Example 170, 1-[(6-{5-Azaspiro[2.3]hexan-5-yl}-2-methylpyridin-3-yl)methyl]-N-[(4R)-1-methyl-1H,4H,5H,6H-cyclopenta[d]imidazol-4-yl]-1H-imidazole-4-carboxamide]: the IC50 against Human PKK was 0.8 nM; in assay [1], 469 nM. Further, at human TK1, the Ki was > 10000 nM.
As for `Cc1nc(N2CC3CC3C2)ncc1Cn1cnc(C(=O)N[C@@H]2CCc3c2ncn3C)c1` (stereo partly drawn) [Example 171, 1-[(2-{3-Azabicyclo[3.1.0]hexan-3-yl}-4-methylpyrimidin-5-yl)methyl]-N-[(4R)-1-methyl-1H,4H,5H,6H-cyclopenta[d]imidazol-4-yl]-1H-imidazole-4-carboxamide], the IC50 stood at 2.6 nM at Human PKK and 268 nM in assay [1]. Besides, at human TK1, the Ki is > 10000 nM.
Take `Cc1nc(N2CC3CC3C2)ccc1Cn1cc(C(=O)N[C@@H]2CCc3c2ncn3C)c2cncnc21` (stereo partly drawn) [Example 173, 7-[(6-{3-Azabicyclo[3.1.0]hexan-3-yl]-2-methylpyridin-3-yl)methyl]-N-[(4R)-1-methyl-1H,4H,5H,6H-cyclopenta[d]imidazol-4-yl]-7H-pyrrolo[2,3-d]pyrimidine-5-carboxamide]: the IC50 at Human PKK amounted to 0.6 nM; in assay [1], 729 nM. Moreover, the Ki on human TK1 was > 10000 nM.
For the compound `Cc1nc(N2CC3C(C2)C3(F)F)ncc1Cn1cc(C(=O)N[C@@H]2CCc3c2ncn3C)c2cncnc21` (stereo partly drawn) [Example 175, 7-[(2-{6,6-Difluoro-3-azabicyclo[3.1.0]hexan-3-yl}-4-methylpyrimidin-5-yl)methyl]-N-[(4R)-1-methyl-1H,4H,5H,6H-cyclopenta[d]imidazol-4-yl]-7H-pyrrolo[2,3-d]pyrimidine-5-carboxamide], the IC50 against Human PKK was 2.9 nM; in assay [1], 822 nM. Besides, the Ki on human TK1 was > 10000 nM.
